In article PMC12635197, “Discovery of first-in-class inhibitors of the TRF1:TIN2 protein:protein interaction by fragment screening” (Scientific Reports, 2025):

Molecular target: T1, TRF1TRFH:TIN2-FAM interaction (Homo sapiens, UniProt P54274)
T1 construct: encoding residues 47–268, UniProt identifier P54274-1; His6-MBP (TEV-cleavable) (N, cleaved yes); made in house; host or cells: E. coli BL21-CodonPlus(DE3)-RIL (TRF1TRFH); probe peptide from Pepceuticals
T1 sequence (P54274 47-268): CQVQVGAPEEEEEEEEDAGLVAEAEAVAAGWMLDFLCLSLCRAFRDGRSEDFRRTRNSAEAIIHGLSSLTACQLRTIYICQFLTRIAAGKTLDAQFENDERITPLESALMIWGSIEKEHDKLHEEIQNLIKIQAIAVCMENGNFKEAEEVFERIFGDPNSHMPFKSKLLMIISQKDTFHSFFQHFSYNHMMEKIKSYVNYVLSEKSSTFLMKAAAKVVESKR
Experiment: Fluorescence polarisation (FP) competition assay, TIN2-FAM displacement
Format: binding
Conditions: 0.6 µM TRF1TRFH, 25 nM TIN2-FAM; mean of three independent experiments, 95% CI in parentheses
Experimental: To complement the biophysical R2KD assay, we developed a fluorescence polarisation (FP) competition assay based on a TIN2TBM peptide labelled with an N-terminal 5(6)-carboxyfluorescein (6-FAM) fluorophore. […] The NMR hit analogues were then titrated against constant concentrations of TRF1TRFH and TIN2-FAM (0.6 µM and 25 nM, respectively).
A TIN2TBM peptide was obtained from Pepceuticals with a 5(6)-carboxyfluorescein (FAM) fluorophore added to the N-terminus for fluorescence studies. To determine the assay window for the FP assay, the TIN2-FAM probe was prepared as a 16-µM stock in aqueous buffer and titrated from 0 to 400 nM against either a constant concentration of TRF1TRFH (0.5 µM in FP buffer) or FP buffer alone (25 mM HEPES-NaOH pH 7.5, 100 mM NaCl, 1 mM TCEP, 0.05% w/v CHAPS). Samples were prepared to a final volume of 10 µL in Packard Proxiplate 384 F plus plates; plates were incubated in darkness at room temperature for 1 h prior to measuring fluorescence intensities and calculating FP values, using a BMG Labtech PHERAstar FSX plate reader with an FP 485 520 520 optic module. A settling time of 0.3 s was used, and the number of flashes was set to 200 for FP measurements. For each plate, a target mP of 35 was set and the gain adjusted on the TIN2-FAM probe control well minus protein.
For the FP competition assay, the unlabelled compounds (from 50-mM DMSO stocks) were first dispensed in duplicate into wells of a Proxiplate 384 F Plus plate using an Echo 550 acoustic liquid handler to give a 13-point concentration range from 0.2 to 500 µM. Wells were then backfilled to 250 nL with DMSO before the addition of 5 µL of 2x TRF1TRFH (0.6 µM final concentration) and 4.75 µL 2x TIN2-FAM (25 nM final concentration). Plates were spun and sealed prior to incubation for 1 h in darkness. FP measurements were then carried out as described above.

IC50: 67 µM
SMILES: COc1cc(COc2ccc(S(=O)(=O)[O-])c3ccccc23)cc(OC)c1.[Na+] [Compound 40]
